Laboratory results as given in patent publication US6348309B1, “Process for inactivating viruses in blood and blood products” (priority 1989, dated 2002).

Tests used:
Sindbis = format: cell-based
SIV = test: MB/light virus inactivation in plasma (Example 6, Table VI); format: cell-based; conditions: illumination 15 min; * production conditions, plastic bag 250-300 ml plasma
coagulation factor VIII = molecular target: T1, coagulation factor VIII (Homo sapiens, UniProt P00451); test: Coagulation factor activity in human plasma with MB and light exposure (Example 10); format: biochemical
T1 construct: Varying amounts of MB were added to human plasma (2 ml aliquots); from tissue; host or cells: human plasma
T1 sequence (P00451 20-1332 limits assumed): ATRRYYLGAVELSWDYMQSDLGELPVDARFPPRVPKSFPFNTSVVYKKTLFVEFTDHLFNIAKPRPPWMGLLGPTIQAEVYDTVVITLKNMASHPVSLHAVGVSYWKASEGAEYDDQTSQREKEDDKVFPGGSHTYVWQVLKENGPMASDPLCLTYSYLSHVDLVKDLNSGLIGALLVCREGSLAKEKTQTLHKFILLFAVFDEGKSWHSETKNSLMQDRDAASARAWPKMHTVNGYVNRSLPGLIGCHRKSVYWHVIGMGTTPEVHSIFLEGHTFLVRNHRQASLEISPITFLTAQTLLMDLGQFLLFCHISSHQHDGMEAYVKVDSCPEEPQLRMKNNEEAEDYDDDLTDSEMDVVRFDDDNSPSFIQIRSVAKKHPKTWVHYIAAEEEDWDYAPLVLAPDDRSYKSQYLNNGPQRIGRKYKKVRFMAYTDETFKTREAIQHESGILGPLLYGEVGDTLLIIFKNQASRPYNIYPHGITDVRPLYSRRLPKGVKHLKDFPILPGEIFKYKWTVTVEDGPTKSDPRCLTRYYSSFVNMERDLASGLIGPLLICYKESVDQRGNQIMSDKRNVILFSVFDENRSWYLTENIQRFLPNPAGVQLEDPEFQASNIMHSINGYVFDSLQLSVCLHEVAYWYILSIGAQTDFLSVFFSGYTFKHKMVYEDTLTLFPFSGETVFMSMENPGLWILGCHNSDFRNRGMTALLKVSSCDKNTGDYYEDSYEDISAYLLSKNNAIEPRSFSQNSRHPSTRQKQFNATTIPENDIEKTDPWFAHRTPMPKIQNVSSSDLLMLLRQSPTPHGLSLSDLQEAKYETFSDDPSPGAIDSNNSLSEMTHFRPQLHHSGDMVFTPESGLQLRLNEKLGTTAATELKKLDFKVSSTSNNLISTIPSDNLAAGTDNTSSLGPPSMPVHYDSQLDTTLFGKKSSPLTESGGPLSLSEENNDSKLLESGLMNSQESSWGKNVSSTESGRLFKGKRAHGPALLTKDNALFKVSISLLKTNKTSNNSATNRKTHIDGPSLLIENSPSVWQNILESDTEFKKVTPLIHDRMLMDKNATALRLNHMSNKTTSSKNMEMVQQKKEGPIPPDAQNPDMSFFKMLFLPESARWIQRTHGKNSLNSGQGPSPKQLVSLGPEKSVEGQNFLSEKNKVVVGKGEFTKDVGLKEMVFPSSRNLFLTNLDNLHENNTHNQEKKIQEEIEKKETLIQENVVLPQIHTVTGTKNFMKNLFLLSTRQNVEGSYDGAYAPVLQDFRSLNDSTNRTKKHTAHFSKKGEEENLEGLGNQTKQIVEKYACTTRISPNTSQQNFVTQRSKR
T1 sequence (P00451 1668-2351 limits assumed): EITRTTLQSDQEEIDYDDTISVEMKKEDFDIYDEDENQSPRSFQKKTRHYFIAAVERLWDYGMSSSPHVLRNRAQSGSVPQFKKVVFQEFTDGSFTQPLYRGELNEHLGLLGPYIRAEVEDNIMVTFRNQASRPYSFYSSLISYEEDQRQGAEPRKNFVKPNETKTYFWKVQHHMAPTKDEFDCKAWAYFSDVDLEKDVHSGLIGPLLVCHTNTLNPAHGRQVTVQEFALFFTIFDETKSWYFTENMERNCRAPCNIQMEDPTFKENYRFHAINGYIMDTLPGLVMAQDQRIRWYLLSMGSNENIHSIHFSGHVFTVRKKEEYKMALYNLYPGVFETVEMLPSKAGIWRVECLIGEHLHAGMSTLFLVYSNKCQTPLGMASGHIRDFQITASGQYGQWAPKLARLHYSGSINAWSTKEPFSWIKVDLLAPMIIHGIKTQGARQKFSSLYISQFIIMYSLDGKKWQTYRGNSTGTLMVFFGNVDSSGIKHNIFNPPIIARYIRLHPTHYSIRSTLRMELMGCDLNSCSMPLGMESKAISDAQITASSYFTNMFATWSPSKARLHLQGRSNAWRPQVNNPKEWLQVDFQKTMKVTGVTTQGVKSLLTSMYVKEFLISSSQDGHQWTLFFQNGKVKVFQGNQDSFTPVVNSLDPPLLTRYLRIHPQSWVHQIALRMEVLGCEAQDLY

Semliki Forest = format: cell-based
coagulation factor V = molecular target: T2, coagulation factor V (Homo sapiens, UniProt P12259); test: Coagulation factor activity in human plasma with MB and light exposure (Example 10); format: biochemical
T2 construct: Varying amounts of MB were added to human plasma (2 ml aliquots); from tissue; host or cells: human plasma
T2 sequence (P12259 29-2224): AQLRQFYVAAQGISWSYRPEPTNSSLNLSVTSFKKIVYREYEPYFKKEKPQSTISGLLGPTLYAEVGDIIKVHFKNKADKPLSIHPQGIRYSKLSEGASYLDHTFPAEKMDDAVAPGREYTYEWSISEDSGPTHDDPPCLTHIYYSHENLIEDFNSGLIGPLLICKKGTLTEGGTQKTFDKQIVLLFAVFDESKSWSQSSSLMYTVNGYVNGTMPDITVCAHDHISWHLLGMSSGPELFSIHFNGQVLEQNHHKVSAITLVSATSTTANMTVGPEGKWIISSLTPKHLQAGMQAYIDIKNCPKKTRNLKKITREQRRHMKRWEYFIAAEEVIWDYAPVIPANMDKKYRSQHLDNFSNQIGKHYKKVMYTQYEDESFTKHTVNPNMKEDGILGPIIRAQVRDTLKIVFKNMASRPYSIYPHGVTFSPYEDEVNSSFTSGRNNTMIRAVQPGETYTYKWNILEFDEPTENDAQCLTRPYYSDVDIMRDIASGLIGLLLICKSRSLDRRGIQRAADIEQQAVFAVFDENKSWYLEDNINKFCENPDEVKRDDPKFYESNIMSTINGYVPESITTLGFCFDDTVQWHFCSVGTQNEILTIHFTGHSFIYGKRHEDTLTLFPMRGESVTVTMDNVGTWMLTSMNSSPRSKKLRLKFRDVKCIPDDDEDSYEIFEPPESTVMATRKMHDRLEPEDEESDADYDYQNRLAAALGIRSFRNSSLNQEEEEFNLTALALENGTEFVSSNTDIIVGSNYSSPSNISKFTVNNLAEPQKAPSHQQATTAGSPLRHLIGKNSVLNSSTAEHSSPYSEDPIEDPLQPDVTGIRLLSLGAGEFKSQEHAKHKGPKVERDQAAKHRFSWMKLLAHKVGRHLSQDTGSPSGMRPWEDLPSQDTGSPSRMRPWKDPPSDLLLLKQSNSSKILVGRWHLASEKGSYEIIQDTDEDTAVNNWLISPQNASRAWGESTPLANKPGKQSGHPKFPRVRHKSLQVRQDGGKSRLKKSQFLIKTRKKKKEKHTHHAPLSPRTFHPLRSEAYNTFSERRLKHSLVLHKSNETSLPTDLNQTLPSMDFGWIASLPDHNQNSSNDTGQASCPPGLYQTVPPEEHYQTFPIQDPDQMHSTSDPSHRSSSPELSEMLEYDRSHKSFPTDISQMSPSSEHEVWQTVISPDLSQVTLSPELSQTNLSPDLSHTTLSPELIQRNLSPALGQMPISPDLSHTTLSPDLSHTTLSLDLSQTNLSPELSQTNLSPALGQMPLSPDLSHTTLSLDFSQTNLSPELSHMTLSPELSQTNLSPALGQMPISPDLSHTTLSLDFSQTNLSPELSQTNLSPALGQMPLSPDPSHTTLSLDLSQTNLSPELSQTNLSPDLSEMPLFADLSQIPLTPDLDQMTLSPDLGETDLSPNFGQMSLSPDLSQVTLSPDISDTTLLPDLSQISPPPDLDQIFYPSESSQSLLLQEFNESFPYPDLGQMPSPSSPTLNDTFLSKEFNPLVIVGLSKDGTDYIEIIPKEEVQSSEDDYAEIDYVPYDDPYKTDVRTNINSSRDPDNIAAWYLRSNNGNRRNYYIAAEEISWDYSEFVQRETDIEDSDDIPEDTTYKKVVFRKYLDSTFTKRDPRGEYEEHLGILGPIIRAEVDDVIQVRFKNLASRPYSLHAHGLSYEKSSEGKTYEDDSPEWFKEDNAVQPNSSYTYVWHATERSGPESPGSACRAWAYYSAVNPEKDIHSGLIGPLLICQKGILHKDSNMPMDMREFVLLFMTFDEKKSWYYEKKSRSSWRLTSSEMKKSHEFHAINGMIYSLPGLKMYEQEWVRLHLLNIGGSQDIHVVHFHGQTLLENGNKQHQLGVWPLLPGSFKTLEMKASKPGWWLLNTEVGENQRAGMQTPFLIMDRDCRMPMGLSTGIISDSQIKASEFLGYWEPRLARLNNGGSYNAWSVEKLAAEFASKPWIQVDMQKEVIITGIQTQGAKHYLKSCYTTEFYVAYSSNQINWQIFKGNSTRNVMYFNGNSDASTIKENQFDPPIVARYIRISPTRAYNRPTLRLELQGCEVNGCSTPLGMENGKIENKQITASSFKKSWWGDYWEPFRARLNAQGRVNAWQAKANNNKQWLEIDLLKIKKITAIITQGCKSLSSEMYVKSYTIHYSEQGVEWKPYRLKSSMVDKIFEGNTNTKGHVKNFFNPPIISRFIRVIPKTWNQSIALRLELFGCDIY

coagulation factor IX = molecular target: T3, coagulation factor IX (Homo sapiens, UniProt P00740); test: as above; format: biochemical
T3 construct: Varying amounts of MB were added to human plasma (2 ml aliquots); from tissue; host or cells: human plasma
T3 sequence (P00740 47-461): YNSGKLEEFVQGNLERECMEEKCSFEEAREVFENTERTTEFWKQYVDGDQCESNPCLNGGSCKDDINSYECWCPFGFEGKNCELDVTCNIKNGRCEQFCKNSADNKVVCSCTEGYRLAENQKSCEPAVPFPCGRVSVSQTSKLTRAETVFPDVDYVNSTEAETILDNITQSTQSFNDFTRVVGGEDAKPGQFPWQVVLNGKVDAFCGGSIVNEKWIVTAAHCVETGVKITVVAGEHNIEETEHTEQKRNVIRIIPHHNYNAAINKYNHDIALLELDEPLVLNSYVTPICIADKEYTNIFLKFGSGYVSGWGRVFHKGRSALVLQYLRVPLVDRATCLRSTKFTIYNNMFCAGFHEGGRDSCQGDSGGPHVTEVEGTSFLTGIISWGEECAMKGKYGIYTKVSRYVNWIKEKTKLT

SV40 = format: cell-based
adeno-virus = test: Photodynamic treatment of adenovirus with freeze/thaw step (Example 8); format: cell-based
VSV = format: cell-based, vesicular stomatitis virus

## CN(C)c1ccc2nc3ccc(=[N+](C)C)cc-3sc2c1 [MB, methylene blue]
Sindbis
  Inactivation Rate: >9.73 log10 TCID50
SIV
  Inactivation Rate: >6.26 * log10 TCID50
Coagulation factor VIII; light exposure 0 h, MB 1 μM
  Factor VIII: 0.45 E/ml
Coagulation factor VIII; light exposure 0 h, MB 2.5 μM
  Factor VIII: 0.33 E/ml
Coagulation factor VIII; light exposure 0 h, MB 10 μM
  Factor VIII: 0.30 E/ml
Coagulation factor VIII; light exposure 1 h, MB 1 μM
  Factor VIII: 0.24 E/ml
Coagulation factor VIII; light exposure 1 h, MB 2.5 μM
  Factor VIII: 0.24 E/ml
Coagulation factor VIII; light exposure 1 h, MB 10 μM
  Factor VIII: 0.16 E/ml
Coagulation factor VIII; light exposure 2 h, MB 1 μM
  Factor VIII: 0.23 E/ml
Coagulation factor VIII; light exposure 2 h, MB 2.5 μM
  Factor VIII: 0.22 E/ml
Coagulation factor VIII; light exposure 2 h, MB 10 μM
  Factor VIII: 0.15 E/ml
Coagulation factor VIII; light exposure 4 h, MB 1 μM
  Factor VIII: 0.16 E/ml
Coagulation factor VIII; light exposure 4 h, MB 2.5 μM
  Factor VIII: 0.29 E/ml
Coagulation factor VIII; light exposure 4 h, MB 10 μM
  Factor VIII: 0.27 E/ml
Semliki Forest
  Inactivation Rate: >7.00 log10 TCID50
Coagulation factor V; light exposure 0 h, MB 1 μM
  Factor V: 0.86 E/ml
Coagulation factor V; light exposure 0 h, MB 2.5 μM
  Factor V: 0.82 E/ml
Coagulation factor V; light exposure 0 h, MB 10 μM
  Factor V: 0.72 E/ml
Coagulation factor V; light exposure 1 h, MB 1 μM
  Factor V: 0.72 E/ml
Coagulation factor V; light exposure 1 h, MB 2.5 μM
  Factor V: 0.68 E/ml
Coagulation factor V; light exposure 1 h, MB 10 μM
  Factor V: 0.47 E/ml
Coagulation factor V; light exposure 2 h, MB 1 μM
  Factor V: 0.64 E/ml
Coagulation factor V; light exposure 2 h, MB 2.5 μM
  Factor V: 0.68 E/ml
Coagulation factor V; light exposure 2 h, MB 10 μM
  Factor V: 0.60 E/ml
Coagulation factor V; light exposure 4 h, MB 1 μM
  Factor V: 0.56 E/ml
Coagulation factor V; light exposure 4 h, MB 2.5 μM
  Factor V: 0.49 E/ml
Coagulation factor V; light exposure 4 h, MB 10 μM
  Factor V: 0.42 E/ml
Coagulation factor IX; light exposure 0 h, MB 1 μM
  Factor IX: 1.20 E/ml
Coagulation factor IX; light exposure 0 h, MB 2.5 μM
  Factor IX: 0.46 E/ml
Coagulation factor IX; light exposure 0 h, MB 10 μM
  Factor IX: 0.44 E/ml
Coagulation factor IX; light exposure 1 h, MB 1 μM
  Factor IX: 0.92 E/ml
Coagulation factor IX; light exposure 1 h, MB 2.5 μM
  Factor IX: 0.82 E/ml
Coagulation factor IX; light exposure 1 h, MB 10 μM
  Factor IX: 0.68 E/ml
Coagulation factor IX; light exposure 2 h, MB 1 μM
  Factor IX: 0.90 E/ml
Coagulation factor IX; light exposure 2 h, MB 2.5 μM
  Factor IX: 0.72 E/ml
Coagulation factor IX; light exposure 2 h, MB 10 μM
  Factor IX: 0.74 E/ml
Coagulation factor IX; light exposure 4 h, MB 1 μM
  Factor IX: 0.94 E/ml
Coagulation factor IX; light exposure 4 h, MB 2.5 μM
  Factor IX: 0.82 E/ml
Coagulation factor IX; light exposure 4 h, MB 10 μM
  Factor IX: 0.64 E/ml
SV40
  Inactivation Rate: >4.00 log10 TCID50
adeno-virus; Sample C: F/T + MB + 60 min pre-incubation + 60 min irradiation
  Virus Titer: 2.5 Log10 TCID50
adeno-virus; Sample D: MB + F/T, no irradiation
  Virus Titer: 7.5 Log10 TCID50
adeno-virus; Sample E: MB + F/T + 10 min irradiation
  Virus Titer: 5.0 Log10 TCID50
adeno-virus; Sample F: MB + F/T + 30 min irradiation
  Virus Titer: 5.0 Log10 TCID50
adeno-virus; Sample G: MB + F/T + 60 min irradiation
  Virus Titer: 4.0 Log10 TCID50
VSV
  concentration of MB required for complete inactivation of VSV: 0.5 µM
  inactivation factor (VSV completely inactivated): more than 4 log10
